Source: patent US4624950A, “Method for treating atherosclerosis hyperlipidema, lipid deposition on arterial walls, or raising the ratio of high density lipoprotein cholesterol to total cholesterol in serum” (Nissan Chemical Industries Ltd., priority 1983, dated 1986)

Key:
Assay type in all cases: in vivo, rat (male S.D.)
[1] = tested on: Triton-induced hyperlipidemic rats; assay: Antihyperlipidemic activity in Triton-induced hyperlipidemic rats, method B (43 hours) (Test 2)
Procedure: (§1) Cholesterol in serum was measured by means of a cholesterol measuring kit (Cholesterol C-Test Wako, manufactured by Wako Junyaku Co., Ltd.), and cholesterol in HDL was measured by means of NC Hi-Set, manufactured by Nippon Chemiphar Co., Ltd. The quantitative analysis of triglyceride was conducted by means of a triglyceride measuring kit (Triglyceride C-II-Test Wako, manufactured by Wako Junyaku Co., Ltd.). Further, the change rate in the following Tables, was calculated by the following equation. Change rate(%)=(A-B/A)×100 where A is the amount of serum lipids (mg/dl) of the control group, and B is the amount of serum lipids (mg/dl) of the group to which the therapeutic agent was administered. The antihyperlipidemic activity in Triton-induced hyperlipidemic rats Male S.D. rats weighing 230-250 g (7 weeks old) were divided into groups of 5 rats each and injected with a physiological saline solution of Triton Wr-1339 in a dose of 250 mg/kg (5 ml/kg) i.v. through the tail vein. […] The test compounds suspended in 0.5% CMC-Na were given to the rats in an amount of 2 ml/kg via stomach tube 1 hour before and 5 hours after (in the case of method A) or 1 hour before and 23 hours after (in the case of method B) the injection of Triton solution. Control rats received the same volume of the vehicle. The animals were fasted during the experimental period. The total cholesterol and triglyceride in the serum were measured.

[2] = tested on: cholesterol-fed hyperlipidemic rats; assay: Antihyperlipidemic activity in cholesterol-fed hyperlipidemic rats (Test 3)
Procedure: It is administered from once to three times per day. The dose may of course be varied depending upon the age, the weight or the condition of illness of the patient. […] In the following tests, the fractionation of lipoproteins was conducted by a dextran sulfate-MgCl2 precipitation method.
Cholesterol in serum was measured by means of a cholesterol measuring kit (Cholesterol C-Test Wako, manufactured by Wako Junyaku Co., Ltd.), and cholesterol in HDL was measured by means of NC Hi-Set, manufactured by Nippon Chemiphar Co., Ltd. The quantitative analysis of triglyceride was conducted by means of a triglyceride measuring kit (Triglyceride C-II-Test Wako, manufactured by Wako Junyaku Co., Ltd.).
Further, the change rate in the following Tables, was calculated by the following equation.
Change rate(%)=(A-B/A)×100 where A is the amount of serum lipids (mg/dl) of the control group, and B is the amount of serum lipids (mg/dl) of the group to which the therapeutic agent was administered.
The antihyperlipidemic activity in cholesterol-fed hyperlipidemic rats
Male S.D. rats weighing 80-90 g (30 days old) were divided into groups of 5 rats each. The test compounds suspended in 0.5% CMC-Na were given to the rats in a daily dose of 0.4 ml per 100 g rat via stomach tube every 10:00 a.m. for 7 or 14 days. Control groups were given an equal volume of the vehicle. […] The total cholesterol, triglyceride and HDL cholesterol in serum were measured. After sacrificed, the livers were excised, washed with physiological saline, blotted on filter paper and weighed. The degree of hepatomegaly was calculated by the following equation.
Degree of hepatomegaly (%)=(D-C/C)×100 where C is the liver weight (g) per 100 g body weight in the control animal, and D is the liver weight (g) per 100 g body weight in the drug treated animal.

[3] = tested on: Triton-induced hyperlipidemic rats; assay: Antihyperlipidemic activity in Triton-induced hyperlipidemic rats, method A (24 hours) (Test 2)
Procedure: as §1

Which results are given for CN1C(=S)SC(c2ccccc2)N(C)C1c1ccccc1 (stereo not shown) [Compound of the formula I, 3,5-dimethyl-4,6-diphenyl-tetrahydro-2H-1,3,5-thiadiazine-2-thione]?
Change rate after 43 hours, Chol ([1]; 150 mg/kg p.o.): -43.5%; Change rate after 43 hours, TG ([1]; 150 mg/kg p.o.): -65.7%; Lipid reducing activity (in words) ([1]; method B): distinc lipid reducing activity; Hepatomegaly (in words) ([2]; 7 or 14 days): no hepatomegaly; Lipid reducing and HDL-cholesterol increasing activity (in words) ([2]; 7th day): not distinct very much; Change rate, HDL-Chol ([2]; 7th day, 10 mg/kg/day p.o.): -12.7%; Change rate, TG ([2]; 7th day, 10 mg/kg/day p.o.): -13.8%; Change rate, Total-Chol ([2]; 7th day, 10 mg/kg/day p.o.): -3.3%; Degree of hepatomegaly ([2]; 7th day, 10 mg/kg/day p.o.): +4.0%; Serum lipid, HDL-Chol ([2]; 7th day, 10 mg/kg/day p.o.): 15.8 mg/dL; Serum lipid, TG ([2]; 7th day, 10 mg/kg/day p.o.): 105.9 mg/dL; Serum lipid, Total-Chol ([2]; 7th day, 10 mg/kg/day p.o.): 421.7 mg/dL; Change rate, HDL-Chol ([2]; 7th day, 50 mg/kg/day p.o.): 0%; Change rate, TG ([2]; 7th day, 50 mg/kg/day p.o.): -15.3%; Change rate, Total-Chol ([2]; 7th day, 50 mg/kg/day p.o.): -33.6%; Degree of hepatomegaly ([2]; 7th day, 50 mg/kg/day p.o.): +2.0%; Serum lipid, HDL-Chol ([2]; 7th day, 50 mg/kg/day p.o.): 18.1 mg/dL; Serum lipid, TG ([2]; 7th day, 50 mg/kg/day p.o.): 104.0 mg/dL; Serum lipid, Total-Chol ([2]; 7th day, 50 mg/kg/day p.o.): 289.8 mg/dL; Change rate, HDL-Chol ([2]; 7th day, 100 mg/kg/day p.o.): +6.1%; Change rate, TG ([2]; 7th day, 100 mg/kg/day p.o.): -24.5%; Change rate, Total-Chol ([2]; 7th day, 100 mg/kg/day p.o.): -32.4%; Serum lipid, HDL-Chol ([2]; 7th day, 100 mg/kg/day p.o.): 19.2 mg/dL; Serum lipid, TG ([2]; 7th day, 100 mg/kg/day p.o.): 92.7 mg/dL; Serum lipid, Total-Chol ([2]; 7th day, 100 mg/kg/day p.o.): 294.7 mg/dL; Change rate, HDL-Chol ([2]; 7th day, 150 mg/kg/day p.o.): -4.4%; Change rate, TG ([2]; 7th day, 150 mg/kg/day p.o.): -46.1%; Change rate, Total-Chol ([2]; 7th day, 150 mg/kg/day p.o.): -11.7%; Degree of hepatomegaly ([2]; 7th day, 150 mg/kg/day p.o.): +12.0%; Serum lipid, HDL-Chol ([2]; 7th day, 150 mg/kg/day p.o.): 17.3 mg/dL; Serum lipid, TG ([2]; 7th day, 150 mg/kg/day p.o.): 66.2 mg/dL; Serum lipid, Total-Chol ([2]; 7th day, 150 mg/kg/day p.o.): 385 mg/dL; Lipid reducing and HDL-cholesterol increasing activity (in words) ([2]; 14th day): strong lipid reducing activity and HDL-cholesterol increasing activity; Change rate, HDL-Chol ([2]; 14th day, 10 mg/kg/day p.o.): +129.9%; Change rate, TG ([2]; 14th day, 10 mg/kg/day p.o.): -44.6%; Change rate, Total-Chol ([2]; 14th day, 10 mg/kg/day p.o.): -42.5%; Degree of hepatomegaly ([2]; 14th day, 10 mg/kg/day p.o.): +5.3%; Serum lipid, HDL-Chol ([2]; 14th day, 10 mg/kg/day p.o.): 20.0 mg/dL; Serum lipid, TG ([2]; 14th day, 10 mg/kg/day p.o.): 92.5 mg/dL; Serum lipid, Total-Chol ([2]; 14th day, 10 mg/kg/day p.o.): 336.5 mg/dL; Change rate, HDL-Chol ([2]; 14th day, 50 mg/kg/day p.o.): +135.6%; Change rate, TG ([2]; 14th day, 50 mg/kg/day p.o.): -47.5%; Change rate, Total-Chol ([2]; 14th day, 50 mg/kg/day p.o.): -33.5%; Degree of hepatomegaly ([2]; 14th day, 50 mg/kg/day p.o.): +1.8%; Serum lipid, HDL-Chol ([2]; 14th day, 50 mg/kg/day p.o.): 20.5 mg/dL; Serum lipid, TG ([2]; 14th day, 50 mg/kg/day p.o.): 87.7 mg/dL; Serum lipid, Total-Chol ([2]; 14th day, 50 mg/kg/day p.o.): 389.2 mg/dL; Change rate, HDL-Chol ([2]; 14th day, 100 mg/kg/day p.o.): +186.2%; Change rate, TG ([2]; 14th day, 100 mg/kg/day p.o.): -44.8%; Change rate, Total-Chol ([2]; 14th day, 100 mg/kg/day p.o.): -53.7%; Degree of hepatomegaly ([2]; 14th day, 100 mg/kg/day p.o.): +10.5%; Serum lipid, HDL-Chol ([2]; 14th day, 100 mg/kg/day p.o.): 24.9 mg/dL; Serum lipid, TG ([2]; 14th day, 100 mg/kg/day p.o.): 92.2 mg/dL; Serum lipid, Total-Chol ([2]; 14th day, 100 mg/kg/day p.o.): 271.3 mg/dL; Change rate, HDL-Chol ([2]; 14th day, 150 mg/kg/day p.o.): +147.1%; Change rate, TG ([2]; 14th day, 150 mg/kg/day p.o.): -53.8%; Change rate, Total-Chol ([2]; 14th day, 150 mg/kg/day p.o.): -60.9%; Degree of hepatomegaly ([2]; 14th day, 150 mg/kg/day p.o.): +5.3%; Serum lipid, HDL-Chol ([2]; 14th day, 150 mg/kg/day p.o.): 21.5 mg/dL; Serum lipid, TG ([2]; 14th day, 150 mg/kg/day p.o.): 77.1 mg/dL; Serum lipid, Total-Chol ([2]; 14th day, 150 mg/kg/day p.o.): 228.6 mg/dL; Change rate after 24 hours, Chol ([3]; 150 mg/kg p.o.): -6.0%; Change rate after 24 hours, TG ([3]; 150 mg/kg p.o.): +21.8%; Lipid reducing activity (in words) ([3]; method A): no lipid reducing activity was observed
